Test results taken from patent publication US7989449B2, “4,5-dihydro-oxazol-2-yl amine derivatives” (Hoffman-La Roche Inc., priority 2008, dated 2011).
Where a name gives a salt, the structure may show the parent alone.

Target: T1, 6his-tagged full length BACE 1 from SF9 cells (Homo sapiens, UniProt P56817)
T1 construct: 6his-tagged full length BACE 1 from SF9 cells; made in house; host or cells: Sf9 insect cells
Assay: BACE1 MR121 protease assay
Format: biochemical
Details: 30 nM 6his-BACE-1, 300 nM substrate peptide WSEVNLDAEFRC-MR121, Na-acetate pH 4.0, fluorescence
Protocol: Assay plate: 384 well microtiter plate, Corning clear, flat bottom, non binding surface
Assaybuffer: 100 mM Na-acetate pH 4.0, 20 mM EDTA, 0.05% BSA
BACE-1: 6his-tagged full length BACE 1 from SF9 cells
Substrate peptide: WSEVNLDAEFRC-MR121
BACE1 MR121 protease assay
39 μl of a 38 nM 6his-BACE-1 solution in assay buffer (final conc. in the assay: 30 nM) were pipetted into the assay plate. 1 μl of a concentration of a potential inhibitor in dimethylsulfoxide was added to the enzyme and incubated for 10 min. Finally, 10 μl of a 1.5 μM solution of the substrate in assay buffer (final conc. in the assay: 300 nM) was added to start the enzymatic reaction. After strong mixing for 2 min the enzymatic reaction was followed by measuring the fluorescence intensity every two minutes for 15 min on a suitable fluorescence reader. […] The slope was calculated from the linear part of the kinetic as a measure of the activity of BACE-1. A range of concentrations of the potential inhibitor was used to generate data for calculating the concentration of inhibitor resulting in 50% of the effect (e.g. IC50, the concentration of the compound inhibiting the BACE-1 activity by 50%).

T1 sequence (P56817 46-501): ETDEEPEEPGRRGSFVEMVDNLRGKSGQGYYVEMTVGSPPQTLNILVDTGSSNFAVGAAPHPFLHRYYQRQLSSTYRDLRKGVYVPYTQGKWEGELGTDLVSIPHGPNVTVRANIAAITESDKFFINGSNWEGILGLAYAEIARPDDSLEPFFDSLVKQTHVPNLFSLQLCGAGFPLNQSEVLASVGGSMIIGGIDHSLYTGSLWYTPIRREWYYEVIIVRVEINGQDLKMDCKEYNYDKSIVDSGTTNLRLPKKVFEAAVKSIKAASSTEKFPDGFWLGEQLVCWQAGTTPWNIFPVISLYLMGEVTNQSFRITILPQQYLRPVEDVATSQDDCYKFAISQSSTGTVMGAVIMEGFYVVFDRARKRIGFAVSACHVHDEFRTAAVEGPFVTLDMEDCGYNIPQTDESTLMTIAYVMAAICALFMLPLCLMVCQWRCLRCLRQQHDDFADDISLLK

Structure (SMILES)	IC50 [nM]
COc1cncc(-c2cccc(C3(c4ccc(OC)c(C(F)(F)F)c4)COC(N)=N3)c2)c1 (racemic) [Example 150, formate]	330
CCOc1cc(Nc2ccccc2)cc(C2(c3ccc(OC(F)F)c(C)c3)COC(N)=N2)c1 (racemic) [Example 192]	660
CCOCc1cc(Nc2ccccc2)cc(C2(c3ccc(OC(F)F)c(C)c3)COC(N)=N2)c1 (racemic) [Example 193, (RS)-4-(4-Difluoromethoxy-3-methyl-phenyl)-4-(3-ethoxymethyl-5-phenylamino-phenyl)-4,5-dihydro-oxazol-2-ylamine]	80
CCOCc1cc(Nc2cccc(OC)c2)cc(C2(c3ccc(OC(F)F)c(C)c3)COC(N)=N2)c1 (racemic) [Example 194, (RS)-4-(4-Difluoromethoxy-3-methyl-phenyl)-4-[3-ethoxymethyl-5-(3-methoxy-phenylamino)-phenyl]-4,5-dihydro-oxazol-2-ylamine]	140
CCOCc1cc(Nc2ccccc2)cc(C2(c3ccc(OC)c(C)c3)COC(N)=N2)c1 (racemic) [Example 195, (RS)-4-(3-Ethoxymethyl-5-phenylamino-phenyl)-4-(4-methoxy-3-methyl-phenyl)-4,5-dihydro-oxazol-2-ylamine]	960
COCCc1cc(Nc2ccccc2)cc(C2(c3ccc(OC)c(C)c3)COC(N)=N2)c1 (racemic) [Example 197, (RS)-4-[3-(2-Methoxy-ethyl)-5-phenylamino-phenyl]-4-(4-methoxy-3-methyl-phenyl)-4,5-dihydro-oxazol-2-ylamine]	530
Cc1cc(OC(F)F)ccc1C1(c2cccc(-c3cncc(C#N)c3)c2)COC(N)=N1 (racemic) [Example 200, (RS)-5-{3-[2-Amino-4-(4-difluoromethoxy-2-methyl-phenyl)-4,5-dihydro-oxazol-4-yl]-phenyl}-nicotinonitrile formate]	380
COc1ccc([C@@]2(c3cccc(-c4cccc(Cl)c4)c3)COC(N)=N2)cc1 [Example 39A, (R)-4-(3′-Chloro-biphenyl-3-yl)-4-(4-methoxy-phenyl)-4,5-dihydro-oxazol-2-ylamine]	440
Cc1cc([C@]2(c3cccc(-c4cncc(Cl)c4)c3)COC(N)=N2)ccc1OC(F)F [Example 94A, (R)-4-[3-(5-Chloro-pyridin-3-yl)-phenyl]-4-(4-difluoromethoxy-3-methyl-phenyl)-4,5-dihydro-oxazol-2-ylamine]	40

The remaining lines, values ahead:

IC50 [nM]	Structure (SMILES)
160	Cc1cc(OC(F)F)ccc1C1(c2cccc(-c3cncc(Cl)c3)c2)COC(N)=N1 (racemic) [Example 201, (RS)-4-[3-(5-Chloro-pyridin-3-yl)-phenyl]-4-(4-difluoromethoxy-2-methyl-phenyl)-4,5-dihydro-oxazol-2-ylamine formate]
440	Cc1cc(C2(c3cccc(-c4cncc(Cl)n4)c3)COC(N)=N2)ccc1OC(F)F (racemic) [Example 202, (RS)-4-[3-(6-Chloro-pyrazin-2-yl)-phenyl]-4-(4-difluoromethoxy-3-methyl-phenyl)-4,5-dihydro-oxazol-2-ylamine formate]
110	Cc1cc(C2(c3cccc(-c4cncc(C#N)c4)c3)COC(N)=N2)ccc1OC(F)F (racemic) [Example 203, (RS)-5-{3-[2-Amino-4-(4-difluoromethoxy-3-methyl-phenyl)-4,5-dihydro-oxazol-4-yl]-phenyl}-nicotinonitrile formate]
160	Cc1cc(C2(c3cccc(-c4cnccn4)c3)COC(N)=N2)ccc1OC(F)F (racemic) [Example 204, (RS)-4-(4-Difluoromethoxy-3-methyl-phenyl)-4-(3-pyrazin-2-yl-phenyl)-4,5-dihydro-oxazol-2-ylamine formate]
90	Cc1cc(C2(c3ccc(F)c(-c4cncc(Cl)c4)c3)COC(N)=N2)ccc1OC(F)F (racemic) [Example 205, (RS)-4-[3-(5-Chloro-pyridin-3-yl)-4-fluoro-phenyl]-4-(4-difluoromethoxy-3-methyl-phenyl)-4,5-dihydro-oxazol-2-ylamine formate]
